Here are results for five compounds from article PMC6222927, “Aminobenzosuberone Scaffold as a Modular Chemical Tool for the Inhibition of Therapeutically Relevant M1 Aminopeptidases” (Molecules : A Journal of Synthetic Chemistry and Natural …, 2018).

Like-named read-outs stand apart in the source and are kept apart here.

In data set [1] the target is human aminopeptidase A (HsAPA). The settings on record: NI = no inhibition; cited from earlier work.
The target of data set [2] is human arginyl aminopeptidase B (HsAPB). The settings on record: cited from earlier work.
The target in data set [3] is mammalian cytosolic leucine aminopeptidase (mLAPc). The settings on record: cited from earlier work.
The target in data set [4] is human Leucyl-cystinyl aminopeptidase (HsIRAP). As to conditions: ref 48; cited from earlier work.
The target in data set [5] is mammalian aminopeptidase N (mAPN). As to conditions: cited from earlier work.
Data set [6] has as its target human endoplasmic reticulum aminopeptidase 1 (HsERAP1). As to conditions: ref 41; cited from earlier work.
Data set [7] has as its target human puromycine sensitive aminopeptidase (HsPSA). The settings on record: ref 37; cited from earlier work.
Data set [8] relates to E. coli (EcPepN) M1 aminopeptidase. The settings on record: ref 43; cited from earlier work.
Data set [9] deals with P. falciparum (PfAM1) M1 aminopeptidase. As to conditions: ref 44; cited from earlier work.
In data set [10] the target is bimetallic aminopeptidase from A. proteolytica (AAP). On the set-up: method as in PMID 21292493. As to conditions: ref 42; cited from earlier work.
Data set [11] concerns the target P. falciparum M17 aminopeptidase (PfAM17). The settings on record: ref 45; cited from earlier work.
The target in data set [12] is human leukotriene A4 hydrolase (HsLTA4H). As to conditions: ref 37; cited from earlier work.
A further data set deals with E. coli rEcPepN (Escherichia coli, UniProt P04825). In words: rEcPepN inhibition, Leu-pNA substrate, Dixon method. It counts as biochemical. The method, then:
Enzyme activity assays were carried out in 10 mM Tris-HCl buffer at pH 7.5 with 150 mM NaCl, enzyme, 100 µM substrate (Leu-pNA) in a 100 μL reaction at 37 °C. The absorbance was read at 405 nm. Concentrations ranging from 1 nM to 100 μM of inhibitors (dissolved in DMSO) were incubated with each of the enzymes ([…]) for 30 min at 37 °C in a 96 well plate. After addition of the substrate, immediate increase in absorption was measured. All inhibition assays were performed in triplicates and initial velocities were measured. Percentage inhibition and log values of inhibitor concentrations were plotted using SigmaPlot to determine IC50 values. Ki values were determined by the Dixon method. The assay consists of reaction buffer, enzyme and varied concentrations of Leu-pNA (25, 50, 100, 200 and 400 µM). […] Data were plotted as 1/rate versus inhibitor concentration for each substrate concentration and a linear fit was calculated by non-linear regression using SigmaPlot12.5. All the reactions were performed in triplicates, SD values were reported.

The target in data set [13] is T1, human endoplasmic reticulum aminopeptidase 1 (rHsERAP1) (Homo sapiens, UniProt Q9NZ08).
T1 construct: made in house; host or cells: Hi5 insect cells (baculovirus produced in sf9)
T1 sequence (Q9NZ08 whole entry): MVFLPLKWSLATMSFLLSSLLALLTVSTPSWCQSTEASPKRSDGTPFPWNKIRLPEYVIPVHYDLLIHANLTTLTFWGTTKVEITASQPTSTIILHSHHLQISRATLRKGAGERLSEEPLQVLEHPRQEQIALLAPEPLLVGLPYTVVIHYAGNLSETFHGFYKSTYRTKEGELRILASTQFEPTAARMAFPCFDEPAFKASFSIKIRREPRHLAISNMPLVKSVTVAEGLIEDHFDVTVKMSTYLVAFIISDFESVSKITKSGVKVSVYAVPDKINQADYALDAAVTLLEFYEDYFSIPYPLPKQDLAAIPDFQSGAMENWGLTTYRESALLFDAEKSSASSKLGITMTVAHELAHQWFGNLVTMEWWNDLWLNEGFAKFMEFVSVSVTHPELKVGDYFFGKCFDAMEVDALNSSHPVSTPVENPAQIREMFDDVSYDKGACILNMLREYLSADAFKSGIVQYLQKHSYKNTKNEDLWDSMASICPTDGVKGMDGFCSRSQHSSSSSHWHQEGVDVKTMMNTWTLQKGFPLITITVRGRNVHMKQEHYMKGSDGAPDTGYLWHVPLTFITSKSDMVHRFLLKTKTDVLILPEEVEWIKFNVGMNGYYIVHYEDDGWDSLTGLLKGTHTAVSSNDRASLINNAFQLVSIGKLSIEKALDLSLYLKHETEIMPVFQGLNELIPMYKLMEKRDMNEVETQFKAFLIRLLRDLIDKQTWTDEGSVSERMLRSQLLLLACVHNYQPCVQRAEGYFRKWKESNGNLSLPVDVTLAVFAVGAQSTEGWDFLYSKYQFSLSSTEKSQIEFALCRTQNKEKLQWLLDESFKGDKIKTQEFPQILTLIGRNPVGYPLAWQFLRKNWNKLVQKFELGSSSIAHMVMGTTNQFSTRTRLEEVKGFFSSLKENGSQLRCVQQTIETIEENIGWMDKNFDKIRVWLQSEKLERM
In words: rHsERAP1 inhibition, L-AMC fluorigenic substrate. It counts as biochemical. As to conditions: 50 µM L-AMC. The method, then: (§1) The enzymatic activity of HsERAP1, HsERAP2 and HsIRAP was determined by following the time-dependent increase in fluorescence at 460 nm (excitation: 380 nm) of the fluorigenic substrates L-Leucine-7-amido-4-methyl coumarin (L-AMC; Sigma, Darmstatd, Germany) for HsERAP1 and HsIRAP and L-arginyl-7-amido-4-methyl coumarin (R-AMC; Sigma) for HsERAP2. […] The reaction was followed for 10 min at room temperature and the remaining enzymatic activity was calculated by measuring the slope of the time course.

For data set [14], the target named is T2, human endoplasmic reticulum aminopeptidase 2 (rHsERAP2) (Homo sapiens, UniProt Q6P179).
T2 construct: made in house; host or cells: Hi5 insect cells (baculovirus produced in sf9)
T2 sequence (Q6P179 whole entry): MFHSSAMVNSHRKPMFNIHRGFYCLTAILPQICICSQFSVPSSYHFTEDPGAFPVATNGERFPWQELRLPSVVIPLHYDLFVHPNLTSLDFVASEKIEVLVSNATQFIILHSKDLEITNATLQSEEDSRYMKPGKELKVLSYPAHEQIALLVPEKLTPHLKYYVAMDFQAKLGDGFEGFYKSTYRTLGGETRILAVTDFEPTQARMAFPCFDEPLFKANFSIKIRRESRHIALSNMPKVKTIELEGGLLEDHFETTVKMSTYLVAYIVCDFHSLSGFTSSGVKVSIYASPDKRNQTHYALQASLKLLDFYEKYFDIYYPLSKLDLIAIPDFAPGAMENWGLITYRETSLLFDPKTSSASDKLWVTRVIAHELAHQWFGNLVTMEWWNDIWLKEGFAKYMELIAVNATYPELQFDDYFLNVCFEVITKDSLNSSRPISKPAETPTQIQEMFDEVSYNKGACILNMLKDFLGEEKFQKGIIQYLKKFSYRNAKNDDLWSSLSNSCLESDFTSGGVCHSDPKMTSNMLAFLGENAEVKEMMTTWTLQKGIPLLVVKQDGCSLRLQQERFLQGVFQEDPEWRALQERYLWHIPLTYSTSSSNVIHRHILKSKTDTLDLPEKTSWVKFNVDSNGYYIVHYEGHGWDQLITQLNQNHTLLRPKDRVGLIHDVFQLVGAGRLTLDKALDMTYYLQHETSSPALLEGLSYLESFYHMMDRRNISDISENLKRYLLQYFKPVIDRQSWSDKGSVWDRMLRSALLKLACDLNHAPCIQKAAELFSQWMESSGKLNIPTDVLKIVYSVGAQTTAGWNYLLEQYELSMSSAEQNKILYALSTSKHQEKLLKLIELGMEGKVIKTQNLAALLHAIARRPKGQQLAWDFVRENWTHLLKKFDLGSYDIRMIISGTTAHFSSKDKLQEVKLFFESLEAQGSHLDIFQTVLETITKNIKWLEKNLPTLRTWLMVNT
In words: rHsERAP2 inhibition, R-AMC fluorigenic substrate. The format is biochemical. The settings on record: 50 µM R-AMC. As to the method:
as §1

Data set [15] has as its target human puromycine sensitive aminopeptidase (rHsPSA) (Homo sapiens, UniProt P55786). Put plainly: rHsPSA inhibition, Leu-pNA substrate, Dixon method. It counts as biochemical. As to conditions: triplicate, SD. The method, then:
Enzyme activity assays were carried out in 10 mM Tris-HCl buffer at pH 7.5 with 150 mM NaCl, enzyme, 100 µM substrate (Leu-pNA) in a 100 μL reaction at 37 °C. The absorbance was read at 405 nm. Concentrations ranging from 1 nM to 100 μM of inhibitors (dissolved in DMSO) were incubated with each of the enzymes ([…]) for 30 min at 37 °C in a 96 well plate. After addition of the substrate, immediate increase in absorption was measured. All inhibition assays were performed in triplicates and initial velocities were measured. Percentage inhibition and log values of inhibitor concentrations were plotted using SigmaPlot to determine IC50 values. Ki values were determined by the Dixon method. The assay consists of reaction buffer, enzyme and varied concentrations of Leu-pNA (25, 50, 100, 200 and 400 µM). […]. All the reactions were performed in triplicates, SD values were reported.

The next data set has as its target pAPN from porcine kidney. As to conditions: Dixon plots; cited from earlier work.
The target in the next data set is T3, P. falciparum rPfAM1 (Plasmodium falciparum, UniProt O96935).
T3 construct: made in house; host or cells: Escherichia coli Rosetta 2 (DE3)
T3 sequence (O96935 1-1085): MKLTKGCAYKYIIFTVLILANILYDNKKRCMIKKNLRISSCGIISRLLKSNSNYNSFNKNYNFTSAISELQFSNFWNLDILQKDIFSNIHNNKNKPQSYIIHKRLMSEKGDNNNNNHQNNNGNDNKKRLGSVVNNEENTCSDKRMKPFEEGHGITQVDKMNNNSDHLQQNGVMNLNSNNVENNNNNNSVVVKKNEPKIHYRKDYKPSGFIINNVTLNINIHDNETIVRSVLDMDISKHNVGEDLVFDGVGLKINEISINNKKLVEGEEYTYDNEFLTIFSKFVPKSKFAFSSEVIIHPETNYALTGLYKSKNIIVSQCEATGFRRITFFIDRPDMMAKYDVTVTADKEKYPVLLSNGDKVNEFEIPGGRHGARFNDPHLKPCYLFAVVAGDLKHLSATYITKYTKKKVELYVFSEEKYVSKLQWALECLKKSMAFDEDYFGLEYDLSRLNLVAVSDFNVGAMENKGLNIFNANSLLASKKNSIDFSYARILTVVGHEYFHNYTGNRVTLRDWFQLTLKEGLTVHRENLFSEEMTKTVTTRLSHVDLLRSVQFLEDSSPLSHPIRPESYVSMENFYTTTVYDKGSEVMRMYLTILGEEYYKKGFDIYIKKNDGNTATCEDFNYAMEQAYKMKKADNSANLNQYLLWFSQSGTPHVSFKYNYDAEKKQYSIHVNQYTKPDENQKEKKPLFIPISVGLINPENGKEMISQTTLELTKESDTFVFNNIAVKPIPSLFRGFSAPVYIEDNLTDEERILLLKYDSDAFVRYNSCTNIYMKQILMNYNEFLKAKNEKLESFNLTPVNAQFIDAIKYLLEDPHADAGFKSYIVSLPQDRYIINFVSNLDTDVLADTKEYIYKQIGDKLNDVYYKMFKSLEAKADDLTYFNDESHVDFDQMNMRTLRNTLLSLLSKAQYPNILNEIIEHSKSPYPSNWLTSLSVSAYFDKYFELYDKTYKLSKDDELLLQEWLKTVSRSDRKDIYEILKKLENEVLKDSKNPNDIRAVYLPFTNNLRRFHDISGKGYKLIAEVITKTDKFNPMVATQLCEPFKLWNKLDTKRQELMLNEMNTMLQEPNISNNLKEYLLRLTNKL
The arrangement: method as in PMID 28934959. The settings on record: read-out: Ki rPfAM1; cited from earlier work.

Data set [16] has as its target human leukotriene A4 hydrolase (rHsLTA4H). The arrangement: method as in PMID 21843945. As to conditions: ref 58; cited from earlier work.
A further data set has as its target T4, P. falciparum rPfAM17 (Plasmodium falciparum, UniProt Q8IL11).
T4 construct: made in house; host or cells: Escherichia coli Rosetta 2 (DE3)
T4 sequence (Q8IL11 1-605): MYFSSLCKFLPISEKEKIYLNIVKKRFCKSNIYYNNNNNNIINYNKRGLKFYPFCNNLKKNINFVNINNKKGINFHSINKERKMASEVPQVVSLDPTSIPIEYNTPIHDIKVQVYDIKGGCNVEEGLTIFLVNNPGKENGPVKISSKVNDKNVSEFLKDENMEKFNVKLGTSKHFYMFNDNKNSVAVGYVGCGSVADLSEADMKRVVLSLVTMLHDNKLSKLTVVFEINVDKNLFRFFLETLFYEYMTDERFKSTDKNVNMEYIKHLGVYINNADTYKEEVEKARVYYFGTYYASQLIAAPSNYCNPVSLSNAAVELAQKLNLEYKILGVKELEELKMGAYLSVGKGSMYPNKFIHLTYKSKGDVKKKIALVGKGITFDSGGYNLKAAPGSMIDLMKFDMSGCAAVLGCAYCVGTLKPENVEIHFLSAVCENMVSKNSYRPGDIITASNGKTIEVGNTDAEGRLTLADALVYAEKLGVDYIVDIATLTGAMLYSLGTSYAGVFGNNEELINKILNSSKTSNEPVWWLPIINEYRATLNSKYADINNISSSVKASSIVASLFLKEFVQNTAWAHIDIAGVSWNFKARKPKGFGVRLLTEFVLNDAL
On the set-up: method as in PMID 28934959. The settings on record: ref 69; cited from earlier work.

For data set [17], the target named is aminopeptidase from A. proteolytica (AAP). The arrangement: method as in PMID 21843945. As to conditions: ref 58; cited from earlier work.
Data set [18] is described as follows: Octanol/water partition coefficient (logD7.4) by reversed-phase HPLC. The settings on record: pH 7.4.
Method: The flow was 0.9 mL/min. The aminobenzosuberone derivatives were dissolved at 0.4 µM in methanol. The standards were also dissolved in methanol. Column void volume was estimated from the retention time of uracil, which was included as a non-retained internal reference with each injection.

Sequence of human puromycine sensitive aminopeptidase (rHsPSA) (P55786 whole entry): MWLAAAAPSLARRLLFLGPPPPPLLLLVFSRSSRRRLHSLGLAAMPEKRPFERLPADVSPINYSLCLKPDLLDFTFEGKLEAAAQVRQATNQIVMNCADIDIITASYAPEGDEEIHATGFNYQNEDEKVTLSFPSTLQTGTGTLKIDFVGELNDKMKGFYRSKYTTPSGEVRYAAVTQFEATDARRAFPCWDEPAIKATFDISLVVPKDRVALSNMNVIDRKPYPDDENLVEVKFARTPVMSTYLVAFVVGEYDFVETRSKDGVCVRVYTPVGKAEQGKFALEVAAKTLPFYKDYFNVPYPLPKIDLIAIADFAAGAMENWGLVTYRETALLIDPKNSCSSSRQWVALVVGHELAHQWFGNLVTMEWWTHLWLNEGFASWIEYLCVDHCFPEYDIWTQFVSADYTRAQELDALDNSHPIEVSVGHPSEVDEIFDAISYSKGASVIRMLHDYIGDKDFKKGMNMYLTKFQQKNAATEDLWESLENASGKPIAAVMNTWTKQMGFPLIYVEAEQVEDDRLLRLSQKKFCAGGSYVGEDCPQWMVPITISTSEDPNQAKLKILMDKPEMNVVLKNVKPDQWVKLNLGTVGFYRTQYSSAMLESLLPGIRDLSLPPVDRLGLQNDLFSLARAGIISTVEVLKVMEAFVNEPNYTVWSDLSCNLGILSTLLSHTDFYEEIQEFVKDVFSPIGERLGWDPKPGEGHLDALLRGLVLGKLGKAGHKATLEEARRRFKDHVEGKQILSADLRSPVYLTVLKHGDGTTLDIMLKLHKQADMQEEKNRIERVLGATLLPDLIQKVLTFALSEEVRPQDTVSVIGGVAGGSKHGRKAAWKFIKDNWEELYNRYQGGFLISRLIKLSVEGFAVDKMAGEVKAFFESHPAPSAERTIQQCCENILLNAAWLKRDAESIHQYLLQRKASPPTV
Sequence of E. coli rEcPepN (P04825 whole entry): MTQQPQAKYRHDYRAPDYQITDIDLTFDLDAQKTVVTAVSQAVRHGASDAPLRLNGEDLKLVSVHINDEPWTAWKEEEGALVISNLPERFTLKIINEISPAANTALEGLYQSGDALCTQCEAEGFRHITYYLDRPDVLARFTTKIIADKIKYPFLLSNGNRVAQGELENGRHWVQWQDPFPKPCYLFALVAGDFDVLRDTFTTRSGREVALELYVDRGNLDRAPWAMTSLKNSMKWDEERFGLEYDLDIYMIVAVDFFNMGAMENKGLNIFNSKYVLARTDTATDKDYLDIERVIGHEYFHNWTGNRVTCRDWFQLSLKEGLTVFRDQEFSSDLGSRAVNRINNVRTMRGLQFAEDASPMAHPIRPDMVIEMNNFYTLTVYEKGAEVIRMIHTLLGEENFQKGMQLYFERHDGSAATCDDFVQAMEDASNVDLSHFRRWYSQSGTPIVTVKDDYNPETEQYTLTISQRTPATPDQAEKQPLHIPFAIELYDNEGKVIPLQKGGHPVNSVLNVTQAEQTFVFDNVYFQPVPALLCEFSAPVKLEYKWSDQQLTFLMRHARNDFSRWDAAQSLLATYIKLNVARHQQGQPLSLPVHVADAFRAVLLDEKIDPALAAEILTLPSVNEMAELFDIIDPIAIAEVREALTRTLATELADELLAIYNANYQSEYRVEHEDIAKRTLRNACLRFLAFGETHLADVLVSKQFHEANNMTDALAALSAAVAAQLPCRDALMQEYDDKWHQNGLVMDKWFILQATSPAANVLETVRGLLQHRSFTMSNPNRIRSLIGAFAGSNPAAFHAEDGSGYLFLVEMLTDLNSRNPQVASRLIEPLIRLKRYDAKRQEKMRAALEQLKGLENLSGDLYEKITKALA

By Ki is commonly meant a dissociation constant, usually derived from enzyme kinetics or from competition with a known ligand. Take `NC1Cc2ccc3ccccc3c2CC1=O` (centres unmarked) [compound 5]: the Ki is over 1000 µM in [1], over 1000 µM in data set [2] (ref 38) and 3 µM in data set [3] (ref 38).

The term IC50 denotes the concentration that gives 50% inhibition. For the compound `C#CC[C@H](CP(=O)(O)[C@@H](N)CCc1ccccc1)C(=O)N[C@@H](Cc1ccccc1)C(N)=O` [compound 3], the concentration for half-maximal inhibition (IC50) in data set [4] was 0.002 µM.

As for `CC(C)C[C@H](NC(=O)[C@@H](O)[C@H](N)Cc1ccccc1)C(=O)O` [compound 1, Bestatin], the Ki in data set [2] (ref 38) is 6 µM; in [2] (ref 39) it was 0.014 µM; in data set [5] (ref 40), 89 µM; in data set [6], 11.2 µM; in [9], 0.19 µM; in data set [10], 0.0016 µM. Besides, the values for the inhibition constant (Ki) in [3] (ref 38), in data set [3] (ref 39) and in data set [11] were 0.0006 µM, 0.02 µM and 0.025 µM, respectively. For the same compound, the IC50 is 0.3 µM in [5] (ref 37), 0.35 µM in data set [7] and 7.3 µM in data set [8].

On to `CC(C)C[C@@H](C(=O)N[C@H](C(=O)O)c1ccccc1)[C@H](O)C(=O)NO` [compound 8], for which the IC50 was 0.008 µM in data set [12], 0.85 µM in data set [7] and 0.03 µM in [3] (ref 37).

For orientation: chromatographic logD means a lipophilicity value derived from retention on a column. Turning to `NC1CCc2cccc(-c3ccccc3)c2CC1=O` (centres unmarked) [21c], the Ki on E. coli rEcPepN was 0.16 ± 0.012 µM; in data set [15] it was 0.05 ± 0.004 µM; on pAPN from porcine kidney it was 0.007 µM; on P. falciparum rPfAM1, 0.05 ± 0.005 µM; in [16] it was 19 µM; on P. falciparum rPfAM17, over 100 µM. In [17], the Ki is 28 µM. In addition, the IC50 is 63 ± 3 µM in data set [13] and 18 ± 1.3 µM in data set [14]. For the same compound, in data set [18], the chromatographic logD is 2.12.
